In patent US11213512B2, “Bis-amino acid based compound and use thereof” (THE CURATORS OF THE UNIVERSITY OF MISSOURI, priority 2016, dated 2022):

Assays:
HeLa cells = test: Cytotoxicity to mammalian cells, XTT assay; format: cell-based, human; settings: 24 h; for cytotoxicity to HeLa (in words): at MIC against Tet^R E. coli (2: 48, 7: 128, 10: 10 μM); for survival of HeLa (in words): two-fold increase over MIC concentration
Description: (§1) It was initially hypothesized that antimicrobial activity resulted from membrane disruption. Membrane active compounds are often cytotoxic to mammalian cells (Shai, Biopolymers 2002, 66, 236-48; Shai, et al., Curr. Protein Pept. Sci. 2006, 7, 479-86). The survival of three mammalian epithelial cell lines was assayed for 2, 3, 5, and 10. […] The cell lines studied were human embryonic kidney (HEK-293), human cervix epithelial (HeLa, ATCC Accession No. CCL-2), and Cercopithecus aethiops kidney (Cos-7, ATCC Accession No. CRL 1651). HeLa cells were acquired from ATCC. Cos-7 and HEK-293 cells were donated by colleagues. Cell lines were regularly maintained in growth media containing DMEM (ATCC), 10% fetal bovine serum (FBS, ATCC) and 1% penicillin-streptomycin solution (ATCC). Adherent HEK-293, HeLa and Cos-7 cells were trypsinized using 0.25% (w/v) trypsin-EDTA (Sigma-Aldrich), suspended in a fresh media and diluted to get a concentration of 3×10^5 cells/ml. Cells were seeded in a 96-well plate (100 μL/well) to get 3×10^4 cells/well. The plates were incubated for 24 hours at 5% CO2 and 37° C. to reach a confluency of 80-90%.
(§2) In a sterile 1.5 mL micro-centrifuge tube, compounds 2, 3, 5, 6, 7 and 10 (0.5% DMSO) were mixed with assay media (DMEM+10% FBS) and serially diluted by 2-fold each to get 2[MIC], [MIC], ½[MIC] and ¼ [MIC] concentrations. A control containing 0.5% DMSO was also prepared. After 24 hours, the spent media in the 96-well plate containing HEK-293, HeLa and Cos-7 cells (90% confluency) was replaced with 100 μL media containing the compounds 2, 3, 5, 6, 7 and 10 at various concentrations. The cells were incubated at 37° C. and 5% CO2 for 24 hours before performing XTT assay (Sigma-Aldrich). The XTT assay was performed according to the manufacturer's protocol. After 24 hours of treatment with compounds, the media was replaced with PBS and 25 μL XTT was added to each well. The XTT assay works by the reduction of tetrazolium compound by alive cells to the colored soluble formazan product. The absorbance of the product was measured at 450 nm (XTT) and 690 nm (background). Percent survival was calculated by comparing the average absorbance of cells treated with compounds 2, 3, 5, 6, 7, and 10 to that of cells alone. Two replicates for each treatment were determined. Average percent survival and standard deviation were calculated.
(§3) Cells were cultured for 24 h in 96-well plates and treated with media containing concentrations using [MIC] and [MIC]×2 determined previously for Tet^R E. coli. The number of surviving cells was determined using an XTT assay (Sigma-Aldrich); the results are represented as percent survival in FIG. 2. Cells alone were used as controls and established 100% survival. The data represent two replicates of three trials and the error bars represent the standard deviation.

HEK-293 cells = test: Cytotoxicity to mammalian cells, XTT assay; format: cell-based, human; settings: 24 h; for cytotoxicity to HEK-293 (in words): at MIC against Tet^R E. coli (2: 48, 7: 128, 10: 10 μM); for survival of HEK-293 (in words): two-fold increase over MIC concentration
Description: as §1, §2, §3

[1] = at MIC against Tet^R E. coli (2: 48, 3: 28, 5: 56, 6: 120, 7: 128, 10: 10 μM)
[2] = at twice the MIC (FIG. 3 legend: 2: 96, 3: 56, 5: 112, 6: 240, 7: 256, 10: 20 μM)

SMILES: Cl.Cl.N[C@@H](Cc1c[nH]c2ccccc12)C(=O)NCCCNC(=O)[C@@H](N)Cc1c[nH]c2ccccc12 [Compound 7, (2S,2′S)-1,1′-(Propane-1,3-diylbis(azanediyl))bis(3-(1H-indol-3-yl)-1-oxopropan-2-aminium) chloride]
- melting point: 234 °C (dec.)
- cytotoxicity to HeLa (in words) (HeLa cells): moderately toxic
- cytotoxicity to HEK-293 (in words) (HEK-293 cells): minimally toxic

SMILES: Cl.Cl.N[C@@H](Cc1c[nH]c2ccccc12)C(=O)Nc1ccc(NC(=O)[C@@H](N)Cc2c[nH]c3ccccc23)cc1 [Compound 6, (2S,2′S)-1,1′-(1,4-Phenylenebis(azanediyl))bis(3-(1H-indol-3-yl)-1-oxopropan-2-aminium) chloride]
- melting point: 237 °C (dec.)
- percent survival HeLa (HeLa cells; [1]): 100%
- percent survival HeLa (HeLa cells; [2]): 29%
- percent survival HEK-293 (HEK-293 cells; [1]): 100%
- percent survival HEK-293 (HEK-293 cells; [2]): 61%

SMILES: Cl.Cl.N[C@@H](Cc1c[nH]c2ccccc12)C(=O)Nc1ccccc1NC(=O)[C@@H](N)Cc1c[nH]c2ccccc12 [Compound 5, (2S,2′S)-1,1′-(1,2-Phenylenebis(azanediyl))bis(3-(1H-indol-3-yl)-1-oxopropan-2-aminium) chloride]
- melting point: 201 °C (dec.)
- percent survival HeLa (HeLa cells; [1]): 100%
- survival of HeLa (in words) (HeLa cells): unaffected
- percent survival HEK-293 (HEK-293 cells; [1]): 100%
- survival of HEK-293 (in words) (HEK-293 cells): unaffected

SMILES: Cl.Cl.N[C@H](Cc1c[nH]c2ccccc12)C(=O)Nc1cccc(NC(=O)[C@H](N)Cc2c[nH]c3ccccc23)c1 [Compound 3, (2R,2′R)-1,1′-(1,3-Phenylenebis(azanediyl))bis(3-(1H-indol-3-yl)-1-oxopropan-2-aminium) chloride]
- melting point: 242 °C (dec.)
- percent survival HeLa (HeLa cells; [1]): 100%
- percent survival HeLa (HeLa cells; [2]): 29%
- percent survival HEK-293 (HEK-293 cells; [1]): 100%
- percent survival HEK-293 (HEK-293 cells; [2]): 62%

SMILES: Cl.Cl.N[C@H](Cc1c[nH]c2ccccc12)C(=O)NCCCCCCCCCCCCNC(=O)[C@@H](N)Cc1c[nH]c2ccccc12 [Compound 10, (S)-1-((12-((R)-2-Ammonio-3-(1H-indol-3-yl)propanamido)dodecyl)amino)-3-(1H-indol-3-yl)-1-oxopropan-2-aminium chloride]
- melting point: 158 °C (dec.)
- cytotoxicity to HeLa (in words) (HeLa cells): moderately toxic
- cytotoxicity to HEK-293 (in words) (HEK-293 cells): minimally toxic

SMILES: Cl.Cl.N[C@@H](Cc1c[nH]c2ccccc12)C(=O)Nc1cccc(NC(=O)[C@@H](N)Cc2c[nH]c3ccccc23)c1 [Compound 2, (2S,2′S)-1,1′-(1,3-Phenylenebis(azanediyl))bis(3-(1H-indol-3-yl)-1-oxopropan-2-aminium) chloride]
- melting point: 223 °C (dec.)
- percent survival HeLa (HeLa cells; [1]): 100%
- cytotoxicity to HeLa (in words) (HeLa cells): no cytotoxicity
- survival of HeLa (in words) (HeLa cells): unaffected
- percent survival HEK-293 (HEK-293 cells; [1]): 100%
- cytotoxicity to HEK-293 (in words) (HEK-293 cells): no cytotoxicity
- survival of HEK-293 (in words) (HEK-293 cells): unaffected
